Test results: PMC8400806, “Discovery of Amide-Functionalized Benzimidazolium Salts as Potent α-Glucosidase Inhibitors” (Molecules, 2021)
“Also recorded” adds a separate entry of the source. Counter-ions that a name gives are not always drawn. Like-named read-outs stand apart in the source and are kept apart here.

How the values were obtained:
α-glucosidase enzyme = molecular target: T1, α-glucosidase enzyme (Saccharomyces cerevisiae, UniProt P53341); experiment: biochemical; format: biochemical; conditions: for α-glucosidase inhibitory activity, in words: verbal rating in the SAR discussion
T1 construct: purchased Sigma-Aldrich, Munich, Germany
T1 sequence (P53341 whole entry): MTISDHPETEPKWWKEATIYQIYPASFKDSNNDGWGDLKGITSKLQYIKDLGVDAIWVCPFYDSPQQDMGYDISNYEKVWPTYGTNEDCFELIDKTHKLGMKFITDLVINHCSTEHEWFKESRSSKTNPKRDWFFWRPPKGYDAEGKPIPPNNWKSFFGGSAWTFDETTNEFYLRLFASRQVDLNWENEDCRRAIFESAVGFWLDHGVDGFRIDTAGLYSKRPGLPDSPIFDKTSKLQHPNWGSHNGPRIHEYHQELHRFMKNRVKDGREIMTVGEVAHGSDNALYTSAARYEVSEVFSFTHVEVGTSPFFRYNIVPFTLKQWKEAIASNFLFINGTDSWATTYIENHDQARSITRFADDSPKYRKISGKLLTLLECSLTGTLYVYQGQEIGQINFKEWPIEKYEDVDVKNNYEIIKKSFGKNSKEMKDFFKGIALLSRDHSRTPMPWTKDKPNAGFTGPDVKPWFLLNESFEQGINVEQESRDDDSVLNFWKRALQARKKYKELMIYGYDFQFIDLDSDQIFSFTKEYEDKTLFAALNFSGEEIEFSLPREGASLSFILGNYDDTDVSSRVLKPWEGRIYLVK
Protocol: The solution of the α-glucosidase enzyme (obtained from Saccharomyces cerevisiae (Sigma-Aldrich, Munich, Germany)) was prepared in phosphate buffer (pH 6.8, 100 mM). The synthesized compounds were dissolved in dimethyl sulfoxide (DMSO). […] Afterwards, 40 μL of 5 mM p-nitrophenyl-α-D-glucopyranoside (Sigma-Aldrich, Munich, Germany) was poured into each well and further incubated for an additional half-hour. […] Acarbose (Sigma-Aldrich, Munich, Germany) and DMSO were used as reference inhibitors and negative control, respectively. The tests were conducted in triplicate and percent inhibitions were calculated using the following formula: % Inhibition = [(A control − A sample)/A control] × 100 where ‘A’ stands for absorbance.
The IC50 values of the synthesized compounds and acarbose were also determined.

Compound | melting point [°C] | IC50 (α-glucosidase enzyme) [µM] | IC50 (α-glucosidase enzyme; S. cerevisiae enzyme 0.5 U/mL, phosphate buffer pH 6.8, 37 °C, triplicate, read-out: IC50 α-glucosidase inhibition) [µM] | α-glucosidase inhibitory activity, in words (α-glucosidase enzyme) | α-glucosidase inhibitory potential, fold higher than the standard drug acarbose (α-glucosidase enzyme; from IC50 values versus acarbose) [fold]
Cc1n(Cc2ccccc2)c2ccccc2[n+]1CC(=O)Nc1ccccc1Br (as salt: bromide) [Compound 10c, 1-Benzyl-3-[2-{(2-bromophenyl)amino)}-2-oxoethyl]-2-methyl-1H-benzo[d]imidazol-3-ium bromide] | 252 | – | – | – | –
Cc1n(Cc2ccccc2)c2ccccc2[n+]1CC(=O)Nc1ccc([N+](=O)[O-])cc1 (as salt: bromide) [Compound 10h, 1-Benzyl-2-methyl-3-[2-{(4-nitrophenyl)amino)}-2-oxoethyl]-1H-benzo[d]imidazol-3-ium bromide] | 222 to 224 | – | – | – | –
O=C(C[n+]1cn(Cc2ccccc2)c2ccccc21)Nc1cccc(Cl)c1.[Br-] [Compound 9a, 1-Benzyl-3-[2-{(3-chlorophenyl)amino}-2-oxoethyl]-1H-benzo[d]imidazol-3-ium bromide] | 205 to 207 | 150.7 ± 0.045 | – | – | –
O=C(C[n+]1cn(Cc2ccccc2)c2ccccc21)Nc1ccc(Cl)cc1.[Br-] [Compound 9b, 1-Benzyl-3-[2-{(4-chlorophenyl)amino}-2-oxoethyl]-1H-benzo[d]imidazol-3-ium bromide] | 197 to 198 | 169.16 ± 0.023 | – | – | –
O=C(C[n+]1cn(Cc2ccccc2)c2ccccc21)Nc1ccccc1Br.[Br-] [Compound 9c, 1-Benzyl-3-[2-{(2-bromophenyl)amino}-2-oxoethyl]-1H-benzo[d]imidazol-3-ium bromide] | 192 to 194 | 70.01 ± 0.037 | – | – | –
O=C(C[n+]1cn(Cc2ccccc2)c2ccccc21)Nc1cccc(Br)c1.[Br-] [Compound 9d, 1-Benzyl-3-[2-{(3-bromophenyl)amino}-2-oxoethyl]-1H-benzo[d]imidazol-3-ium bromide] | 176 to 178 | 171.11 ± 0.089 | – | – | –
O=C(C[n+]1cn(Cc2ccccc2)c2ccccc21)Nc1ccc(Br)cc1 [Compound 9e, 1-Benzyl-3-[2-{(4-bromophenyl)amino)}-2-oxoethyl]-1H-benzo[d]imidazol-3-ium bromide] | – | – | 198 ± 0.103 | – | –
O=C(C[n+]1cn(Cc2ccccc2)c2ccccc21)Nc1ccccc1[N+](=O)[O-].[Br-] [Compound 9f, 1-Benzyl-3-[2-{(2-nitrophenyl)amino}-2-oxoethyl]-1H-benzo[d]imidazol-3-ium bromide] | 142 to 143 | 241 ± 0.027 | – | – | –
O=C(C[n+]1cn(Cc2ccccc2)c2ccccc21)Nc1cccc([N+](=O)[O-])c1.[Br-] [Compound 9g, 1-Benzyl-3-[2-{(3-nitrophenyl)amino}-2-oxoethyl]-1H-benzo[d]imidazol-3-ium bromide] | 162 to 163 | 215.73 ± 0.112 | – | – | –
O=C(C[n+]1cn(Cc2ccccc2)c2ccccc21)Nc1ccc([N+](=O)[O-])cc1.[Br-] [Compound 9h, 1-Benzyl-3-[2{(4-nitrophenyl)amino}-2-oxoethyl]-1H-benzo[d]imidazol-3-ium bromide] | 152 to 153 | – | – | – | –
Cc1ccccc1NC(=O)C[n+]1cn(Cc2ccccc2)c2ccccc21.[Br-] [Compound 9i, 1-Benzyl-3-{2-oxo-2-(o-tolylamino)ethyl}-1H-benzo[d]imidazol-3-ium bromide] | 162 to 163 | 259.86 ± 0.043 | – | – | –
Cc1cccc(NC(=O)C[n+]2cn(Cc3ccccc3)c3ccccc32)c1.[Br-] [Compound 9j, 1-Benzyl-3-{2-oxo-2-(m-tolylamino)ethyl}-1H-benzo[d]imidazol-3-ium bromide] | 132 to 134 | 200.14 ± 0.039 | – | – | –
Cc1ccc(NC(=O)C[n+]2cn(Cc3ccccc3)c3ccccc32)cc1.[Br-] [Compound 9k, 1-Benzyl-3-{2-oxo-2-(p-tolylamino)ethyl}-1H-benzo[d]imidazol-3-ium bromide] | 148 to 149 | 201.13 ± 0.105 | – | – | –
COc1ccccc1NC(=O)C[n+]1cn(Cc2ccccc2)c2ccccc21.[Br-] [Compound 9l, 1-Benzyl-3-[2-{(2-methoxyphenyl)amino}-2-oxoethyl]-1H-benzo[d]imidazol-3-ium bromide] | 188 to 189 | 74.94 ± 0.028 | – | – | –
COc1ccc(NC(=O)C[n+]2cn(Cc3ccccc3)c3ccccc32)cc1.[Br-] [Compound 9m, 1-Benzyl-3-[2-{(4-methoxyphenyl)amino}-2-oxoethyl]-1H-benzo[d]imidazol-3-ium bromide] | 171 to 173 | 279.28 ± 0.03 | – | lowest α-glucosidase inhibitory results in their respective series | –
Cc1n(Cc2ccccc2)c2ccccc2[n+]1CC(=O)Nc1cccc(Cl)c1.[Br-] [Compound 10a, 1-Benzyl-3-[2-{(3-chlorophenyl)amino}-2-oxoethyl]-2-methyl-1H-benzo[d]imidazol-3-ium bromide] | 210 to 213 | 22 ± 0.04 | – | – | –
Cc1n(Cc2ccccc2)c2ccccc2[n+]1CC(=O)Nc1ccc(Cl)cc1.[Br-] [Compound 10b, 1-Benzyl-3-[2-{(4-chlorophenyl)amino}-2-oxoethyl]-2-methyl-1H-benzo[d]imidazol-3-ium bromide] | 178 to 180 | 60 ± 0.041 | – | – | –
Cc1n(Cc2ccccc2)c2ccccc2[n+]1CC(=O)Nc1ccccc1Br [Compound 10c, 1-Benzyl-3-[2-{(2-bromophenyl)amino)}-2-oxoethyl]-2-methyl-1H-benzo[d]imidazol-3-ium bromide] | – | 46 ± 0.106 | – | higher activity than acarbose | –
Cc1n(Cc2ccccc2)c2ccccc2[n+]1CC(=O)Nc1cccc(Br)c1.[Br-] [Compound 10d, 1-Benzyl-3-[2-{(3-bromophenyl)amino}-2-oxoethyl]-2-methyl-1H-benzo[d]imidazol-3-ium bromide] | 242 | 14 ± 0.013 | – | higher activity than acarbose | 4
Cc1n(Cc2ccccc2)c2ccccc2[n+]1CC(=O)Nc1ccc(Br)cc1.[Br-] [Compound 10e, 1-Benzyl-3-[2-{(4-bromophenyl)amino}-2-oxoethyl]-2-methyl-1H-benzo[d]imidazol-3-ium bromide] | 212 | 30 ± 0.049 | – | higher activity than acarbose | –
Cc1n(Cc2ccccc2)c2ccccc2[n+]1CC(=O)Nc1ccccc1[N+](=O)[O-].[Br-] [Compound 10f, 1-Benzyl-2-methyl-3-[2-{(2-nitrophenyl)amino}-2-oxoethyl]-1H-benzo[d]imidazol-3-ium bromide] | – | 60 ± 0.025 | – | considerable decline in activity | –
Cc1n(Cc2ccccc2)c2ccccc2[n+]1CC(=O)Nc1cccc([N+](=O)[O-])c1.[Br-] [Compound 10g, 1-Benzyl-2-methyl-3-[2-{(3-nitrophenyl)amino}-2-oxoethyl]-1H-benzo[d]imidazol-3-ium bromide] | 180 to 182 | 19 ± 0.086 | – | promising α-glucosidase inhibitory results | –
Cc1n(Cc2ccccc2)c2ccccc2[n+]1CC(=O)Nc1ccc([N+](=O)[O-])cc1 [Compound 10h, 1-Benzyl-2-methyl-3-[2-{(4-nitrophenyl)amino)}-2-oxoethyl]-1H-benzo[d]imidazol-3-ium bromide] | – | 17 ± 0.067 | – | promising α-glucosidase inhibitory results | –
Cc1ccccc1NC(=O)C[n+]1c(C)n(Cc2ccccc2)c2ccccc21.[Br-] [Compound 10i, 1-Benzyl-2-methyl-3-{2-oxo-2-(o-tolylamino)ethyl}-1H-benzo[d]imidazol-3-ium bromide] | 168 to 170 | 100 ± 0.048 | – | poor inhibitors; also recorded: lowest α-glucosidase inhibitory results in their respective series | –
Cc1cccc(NC(=O)C[n+]2c(C)n(Cc3ccccc3)c3ccccc32)c1.[Br-] [Compound 10j, 1-Benzyl-2-methyl-3-{2-oxo-2-(m-tolylamino)ethyl}-1H-benzo[d]imidazol-3-ium bromide] | 192 to 194 | 60 ± 0.041 | – | poor inhibitors | –
Cc1ccc(NC(=O)C[n+]2c(C)n(Cc3ccccc3)c3ccccc32)cc1.[Br-] [Compound 10k, 1-Benzyl-2-methyl-3-{2-oxo-2-(p-tolylamino)ethyl}-1H-benzo[d]imidazol-3-ium bromide] | 220 to 221 | 32.27 ± 0.05 | – | moderately active | –
COc1ccccc1NC(=O)C[n+]1c(C)n(Cc2ccccc2)c2ccccc21.[Br-] [Compound 10l, 1-Benzyl-3-[2-{(2-methoxyphenyl)amino}-2-oxoethyl]-2-methyl-1H-benzo[d]imidazol-3-ium bromide] | 244 to 246 | 25 ± 0.011 | – | – | –
COc1ccc(NC(=O)C[n+]2c(C)n(Cc3ccccc3)c3ccccc32)cc1.[Br-] [Compound 10m, 1-Benzyl-3-[2-{(4-methoxyphenyl)amino}-2-oxoethyl]-2-methyl-1H-benzo[d]imidazole-3-ium bromide] | 235 to 238 | 16.16 ± 0.026 | – | – | –
